# Measurements published in patent US5340833A, “Urokinase inhibitors” (Eisai Co., Ltd., priority 1992, dated 1994).
# Structures can show the parent of a compound that is named as a salt.
# Key:
# Type in all cases: biochemical
# [1] = molecular target: T1, human high molecular weight urokinase (Homo sapiens, UniProt P00749); assay: Urokinase Direct Assay; details: inhibitor concentration of 1 mM; for residual urokinase activity at 1000 µM: read-out: uPA Direct: percentage of residual urokinase activity relative to inhibitor-free controls, heading: uPA Direct: percentage of residual urokinase activity relative to inhibitor-free controls
# T1 construct: human high molecular weight urokinase; purchased American Diagnostica, Greenwich, Conn
# Experimental: (i) A direct chromogenic assay in which urokinase cleaves a synthetic tripeptide p-nitroanilide (pNA) urokinase substrate.
# Incubations were carried out at 37° C. for approximately 2 hours or until adequate yellow color developed. Color was quantitated by measuring absorbance at 405 nm (A405) using a Titertek Multiskan MCC/340 MK II microtiter plate spectrophotometer.
# human two-chain tPA = molecular target: T2, human two-chain tPA (Homo sapiens, UniProt P00750); assay: tPA Indirect (Plasminogen-Linked) Assay (tPA Direct Assay result where lower); details: tPA Indirect Plasminogen-Linked Assay; in rare cases direct assay result if lower; read-out: tPA IC50
# T2 construct: human two-chain tPA was substituted for urokinase; purchased American Diagnostica
# Source text: (iv) Both direct and plasminogen-linked pNA assays for tPA, the other mammalian plasminogen activator and the key initiator of blood clot dissolution or fibrinolysis. Since urokinase and tPA share an absolute specificity for the same peptide bond in plasminogen, urokinase inhibitors designed to block cellular invasiveness must be highly specific for urokinase over tPA in order to avoid serious thrombotic side effects secondary to undesired blockage of normal fibrinolysis. […] Spectrozyme tPA®, American Diagnostica) was substituted for urokinase substrate.
# human plasmin = molecular target: T3, human plasmin (Homo sapiens, UniProt P00747); assay: Plasmin Assay; details: read-out: PLASMIN IC50
# T3 construct: plasmin, the potent general protease produced by cleavage of plasminogen by either urokinase or tPA; purchased American Diagnostica
# Experimental: (v) A chromogenic pNA assay for plasmin, the potent general protease produced by cleavage of plasminogen by either urokinase or tPA. Although urokinase initiates cellular invasiveness by generating plasmin, the additional importance of plasmin in tPA-mediated fibrinolysis dictates that plasmin itself should be free from inhibition by urokinase inhibitors designed as anti-invasiveness agents. […] All other assay conditions, as well as methods of color quantitation, were carried out as described above for the urokinase direct assay.
# T3 sequence (P00747 581-810 limits assumed): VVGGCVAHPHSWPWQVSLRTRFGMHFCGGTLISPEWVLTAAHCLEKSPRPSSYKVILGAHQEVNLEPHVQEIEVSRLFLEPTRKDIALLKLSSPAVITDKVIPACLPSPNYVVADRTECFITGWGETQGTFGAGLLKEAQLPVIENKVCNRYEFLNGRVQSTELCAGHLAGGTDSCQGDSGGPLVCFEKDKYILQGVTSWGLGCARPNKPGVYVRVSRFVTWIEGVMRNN
# T3 sequence (P00747 97-580 limits assumed): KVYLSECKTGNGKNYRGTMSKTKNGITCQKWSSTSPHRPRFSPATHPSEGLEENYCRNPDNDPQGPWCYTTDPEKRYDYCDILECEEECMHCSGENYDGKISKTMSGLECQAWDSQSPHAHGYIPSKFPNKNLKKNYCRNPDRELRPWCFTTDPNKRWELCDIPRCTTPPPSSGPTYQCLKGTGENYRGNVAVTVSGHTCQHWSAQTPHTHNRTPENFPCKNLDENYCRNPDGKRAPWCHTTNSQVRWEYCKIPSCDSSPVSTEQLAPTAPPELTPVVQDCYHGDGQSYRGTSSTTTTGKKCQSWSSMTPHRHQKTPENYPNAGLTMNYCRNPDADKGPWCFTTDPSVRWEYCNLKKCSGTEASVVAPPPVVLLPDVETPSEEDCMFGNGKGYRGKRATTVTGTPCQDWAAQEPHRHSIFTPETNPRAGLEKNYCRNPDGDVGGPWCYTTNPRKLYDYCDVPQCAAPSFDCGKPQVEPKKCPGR
# T2 sequence (P00750 311-562 limits assumed): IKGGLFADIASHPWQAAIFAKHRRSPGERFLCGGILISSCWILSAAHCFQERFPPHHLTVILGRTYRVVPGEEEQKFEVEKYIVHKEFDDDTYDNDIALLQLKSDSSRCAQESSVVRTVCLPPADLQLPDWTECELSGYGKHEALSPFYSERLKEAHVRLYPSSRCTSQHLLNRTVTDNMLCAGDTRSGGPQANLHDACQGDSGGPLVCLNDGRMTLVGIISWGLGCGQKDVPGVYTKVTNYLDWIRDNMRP
# T2 sequence (P00750 36-310 limits assumed): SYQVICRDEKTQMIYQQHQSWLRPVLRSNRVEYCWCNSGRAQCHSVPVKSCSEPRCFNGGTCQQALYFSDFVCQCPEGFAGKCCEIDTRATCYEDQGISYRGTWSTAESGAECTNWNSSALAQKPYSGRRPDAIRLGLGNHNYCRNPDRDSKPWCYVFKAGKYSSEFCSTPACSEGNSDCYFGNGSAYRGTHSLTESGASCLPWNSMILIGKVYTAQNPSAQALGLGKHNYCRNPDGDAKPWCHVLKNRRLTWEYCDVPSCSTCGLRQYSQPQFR
Compound,residual urokinase activity at 1000 µM [1],other results
"N=C(N)c1cc2c(/C=C/CCCO)cccc2s1 [Compound 32, 4-(E-5-Hydroxypent-1-enyl)benzo[b]thiophene-2-carboxamidine hydrochloride]",0.67%,–
"N=C(N)c1cc2cc(-c3cccnc3)ccc2s1 [Compound 125, 5-(Pyrid-3-yl)benzo[b]thiophene-2-carboxamidine hydrochloride]",3.6%,–
"CCC=Cc1ccc2sc(C(=N)N)cc2c1 [Compound 117, 5-(E/Z-But-1-enyl)benzo[b]thiophene-2-carboxamidine hydrochloride]",1.1%,–
"N=C(N)c1cc2c(ccc3ccccc32)s1 [Compound 205, Naphtho[2,1-b]thiophene-2-carboxamidine hydrochloride]",0.27%,–
"N=C(N)c1cc2cc3ccccc3cc2s1 [Compound 313, Naphtho[2,3-b]thiophene-2-carboxamidine hydrochloride]",11%,–
"CCCc1ccc2sc(C(=N)N)cc2c1 [Compound 107, 5-Propylbenzo[b]thiophene-2-carboxamidine hydrochloride]",2.6%,–
"N=C(N)c1cc2c(F)cc(Br)cc2s1 [Compound 308, 4-Fluoro-6-bromobenzo[b]thiophene-2-carboxamidine hydrochloride]",14.5%,–
"N=C(N)NC(=O)c1cc2ccccc2s1 [Compound 320, N-Amidino benzo[b]thiophene-2-carboxamide hydrochloride]",84%,–
"C=C(C)c1ccc2sc(C(=N)N)cc2c1 [Compound 115, 5-(1-Methylethenyl)benzo[b]thiophene-2-carboxamidine hydrochloride]",1.2%,–
"CC(C)C=Cc1ccc2sc(C(=N)N)cc2c1 [Compound 119, 5-(E/Z-3-Methylbut-1-enyl)benzo[b]thiophene-2-carboxamidine hydrochloride]",4.9%,–
"N=C(N)c1cc2sccc2s1 [Compound 322, Thieno[3,2-b]thiophene-2-carboxamidine hydrochloride]",2.7%,–
"COc1ccc(-c2cccc3sc(C(=N)N)cc23)cc1 [Compound 45, 4-(4-Methoxyphenyl)benzo[b]thiophene-2-carboxamidine hydrochloride]",6%,–
"CCCCc1ccc2sc(C(=N)N)cc2c1 [Compound 108, 5-Butylbenzo[b]thiophene-2-carboxamidine hydrochloride]",3.4%,–
"N=C(N)c1cccc2sccc12 [Compound 317, Benzo[b]thiophene-4-carboxamidine hydrochloride]",90%,–
4-(7-Amidino-E-hept-1-enyl)benzo[b]thiophene-2-carboxamidine bishydrochloride [Compound 33],–,uPA Direct: percentage of residual urokinase activity relative to inhibitor-free controls [1]: 1.3%
"N=C(N)c1cc2cc(F)ccc2s1 [Compound 101, 5-Fluorobenzo[b]thiophene-2-carboxamidine hydrochloride]",12.7%,–
"N=C(N)c1cc2c(C=CC3CC3)cccc2s1 [Compound 34, 4-(E/Z-2-Cyclopropylethenyl)benzo[b]thiophene-2-carboxamidine. hydrochloride]",0.46%,–
"N=C(N)c1ccc(-c2cccc3sc(C(=N)N)cc23)cc1 [Compound 47, 4-(4-Carboxamidinophenyl)benzo[b]thiophene-2-carboxamidine bis-hydrochloride]",7.6%,–
"N=C(N)c1csc2ccccc12 [Compound 316, Benzo[b]thiophene-3-carboxamidine hydrochloride]",80%,–
"Cc1c(C(=N)N)sc2ccccc12 [Compound 304, 3-Methylbenzo[b]thiophene-2-carboxamidine hydrochloride]",75%,–
"N=C(N)c1cc2cc(CCO)ccc2s1 [Compound 113, 5-(2-Hydroxyethyl)benzo[b]thiophene-2-carboxamidine hydrochloride]",2.9%,–
"C=CCSc1cccc2sc(C(=N)N)cc12 [Compound 59, 4-(Prop-2-en-1-ylthio)benzo[b]thiophene-2-carboxamidine hydrochloride]",1.1%,–
"N=C(N)c1ccc2sccc2c1 [Compound 314, Benzo[b]thiophene-5-carboxamidine hydrochloride]",43%,–

Compound,residual urokinase activity at 1000 µM [1],other results
"N=C(N)c1cc2c(SCc3ccccc3)cccc2s1 [Compound 60, 4-(Benzylthio)benzo[b]thiophene-2-carboxamidine hydrochloride]",1.3%,–
"N=C(N)Nc1cc2ccccc2s1 [Compound 319, 2-Guanidinobenzo[b]thiophene hydrochloride]",> 90%,–
"N=C(N)c1cc2c(C#Cc3ccccc3)cccc2s1 [Compound 76, 4-(Phenylethynyl)benzo[b]thiophene-2-carboxamidine hydrochloride]",1.1%,–
"N=C(N)c1cc2cc(-c3cccs3)ccc2s1 [Compound 127, 5-(Thien-2-yl)benzo[b]thiophene-2-carboxamidine hydrochloride]",1.1%,–
"N=C(N)c1cc2cccc(I)c2s1 [Compound 302, 7-Iodobenzo[b]thiophene-2-carboxamidine hydrochloride]",10.8%,–
"N=C(N)c1cc2c(F)cccc2s1 [Compound 2, 4-Fluorobenzo[b]thiophene-2-carboxamidine hydrochloride]",7.2%,–
"N=C(N)c1cc2cccnc2s1 [Compound 318, Pyrido[2,3-b]thiophene-2-carboxamidine hydrochloride]",55%,–
"Cc1ccc2sc(C(=N)N)cc2c1Br [Compound 202, 4-Bromo-5-methylbenzo[b]thiophene-2-carboxamidine hydrochloride]",3%,–
"C#Cc1ccc2sc(C(=N)N)cc2c1 [Compound 123, 5-(Ethynyl)benzo[b]thiophene-2-carboxamidine hydrochloride]",2.5%,–
"N=C(N)c1cc2ccc(I)cc2s1 [Compound 301, 6-Iodobenzo[b]thiophene-2-carboxamidine hydrochloride]",13.7%,–
"COc1ccc(F)c2cc(C(=N)N)sc12 [Compound 310, 4-Fluoro-7-methoxybenzo[b]thiophene-2-carboxamidine hydrochloride]",> 90%,–
"N=C(N)c1cc2cscc2s1 [Compound 323, Thieno[3,4-b]thiophene-2-carboxamidine hydrochloride]",5.3%,–
"N=C(N)c1sc2ccccc2c1O [Compound 305, 3-Hydroxybenzo[b]thiophene-2-carboxamidine hydrochloride]",> 90%,–
"N=C(N)c1cc2c(C=O)cccc2s1 [Compound 55, 4-Formylbenzo[b]thiophene-2-carboxamidine hydrochloride]",4.8%,–
"Cc1cccc2sc(C(=N)N)cc12 [Compound 6, 4-Methylbenzo[b]thiophene-2-carboxamidine hydrochloride]",–,IC50 (human two-chain tPA): 478 µM; IC50 (human plasmin): 881 µM
"Cc1ccc2sc(C(=N)N)cc2c1 [Compound 105, 5-Methylbenzo[b]thiophene-2-carboxamidine hydrochloride]",3.4%,–
"N=C(N)c1cc2c(Br)cccc2s1 [Compound 4, 4-Bromobenzo[b]thiophene-2-carboxamidine hydrochloride]",0.8%,–
"Cc1ccc2cc(C(=N)N)sc2c1 [Compound 303, 6-Methylbenzo[b]thiophene-2-carboxamidine hydrochloride]",12%,–
"N=C(N)c1cc2c(C3CCCO3)cccc2s1 (racemic) [Compound 61, 4-([R,S]-Tetrahydrofuran-2-yl)benzo[b]thiophene-2-carboxamidine hydrochloride]",0.6%,–
"CCC(C)Cc1ccc2sc(C(=N)N)cc2c1 (racemic) [Compound 109, 5-([R/S]-2-Methylbutyl)benzo[b]thiophene-2-carboxamidine hydrochloride]",6.6%,–
"N=C(N)c1ccc2ccsc2c1 [Compound 315, Benzo[b]thiophene-6-carboxamidine hydrochloride]",21%,–
"N=C(N)c1cc2c(-c3ccc(-c4ccc5c(c4)OCO5)o3)cccc2s1 [Compound 79, 4-[5-(Benzo-1,3-dioxolan-5-yl)fur-2-yl]benzo[b]thiophene-2-carboxamidine hydrochloride]",1.5%,–
"N=C(N)c1cc2c(-c3ccc([N+](=O)[O-])cc3)cccc2s1 [Compound 46, 4-(4-Nitrophenyl)benzo[b]thiophene-2-carboxamidine hydrochloride]",1%,–
